The target of data set [1] is T1, δOR (Mus musculus, UniProt P32300).
T1 construct: FLAG; expressed in transfected cells; host or cells: HEK 293
Briefly: GloSensor cAMP inhibition assay (forskolin-induced cAMP) in HEK 293 cells. The format is cell-based.

Data set [2] has as its target T2, κOR (Homo sapiens, UniProt P41145). More on the design: method as in PMID 28339199. The following applies: ref [36]; read-out: affinity at the κOR; cited from earlier work.
The target in data set [3] is T2, κOR. Also on record: method as in PMID 28339199. The following applies: ref [36]; read-out: potency at the κOR; cited from earlier work.
Data set [4] deals with T3, δOR (Homo sapiens, UniProt P41143). As to the kind of experiment: Radioligand binding assay with [3H]DPDPE.
The target in data set [5] is T4, µOR (Homo sapiens, UniProt P35372). As to the kind of experiment: Radioligand binding assay with [3H]DAMGO. The following applies: read-out: Affinity (pKi ± SEM) (converted).
Data set [6] concerns the target T2, κOR. As to the kind of experiment: Radioligand binding assay with [3H]U69,593. The following applies: read-out: Affinity (pKi ± SEM) (converted).
Data set [7] has as its target µOR (Mus musculus, UniProt P42866). As to the kind of experiment: GloSensor cAMP inhibition assay (forskolin-induced cAMP) in HEK 293 cells. The format is cell-based. The following applies: read-out: cAMP Potency (pIC50 ± SEM) (converted).
Data set [8] concerns the target T2, κOR. As to the kind of experiment: GloSensor cAMP inhibition assay (forskolin-induced cAMP). The format is cell-based. The following applies: read-out: cAMP Potency (pIC50 ± SEM) (converted).
The target in data set [9] is T3, δOR. As to the kind of experiment: PathHunter β-arrestin 2 recruitment, CHO-human δOR cells. The format is cell-based. The following applies: read-out: β-ARR2 potency (pEC50) (converted).
Data set [10] addresses T3, δOR. As to the kind of experiment: PathHunter β-arrestin 1 recruitment, U2OS cells (also library screen). The format is cell-based. The following applies: read-out: β-ARR1 potency (pEC50) (converted). On the technique in general: Arrestin recruitment assays detect the binding of arrestin to an activated receptor.
The target of data set [11] is T1, δOR. Briefly: Assessment of allosteric modulation of Leu-enkephalin in δOR glosensor cAMP assay. The format is cell-based. In general terms: Changes in cAMP serve as a functional read-out for many G protein-coupled receptors.
Data set [12] concerns the target T3, δOR. Also on record: method as in PMID 26507558, PMID 20850307, doi:10.1016/S0021-5198(19)49890-9. The following applies: ref [14],[18],[19]; cited from earlier work.
The conditions of data set [13]: cited from earlier work.
Data set [14] deals with T4, µOR. Also on record: method as in PMID 27533032. The following applies: ref [32]; read-out: affinity at the µOR; cited from earlier work.
The mark [15] stands for this setting: Table 2, three or more independent trials, read-out: pIC50 ± SEM to inhibit cAMP signaling at δOR (converted).

pEC50, pKi: −log10 of the molar value. Where two headings read alike, the source gives them in different places. Some results are limits rather than exact numbers.

T3 sequence (P41143 whole entry): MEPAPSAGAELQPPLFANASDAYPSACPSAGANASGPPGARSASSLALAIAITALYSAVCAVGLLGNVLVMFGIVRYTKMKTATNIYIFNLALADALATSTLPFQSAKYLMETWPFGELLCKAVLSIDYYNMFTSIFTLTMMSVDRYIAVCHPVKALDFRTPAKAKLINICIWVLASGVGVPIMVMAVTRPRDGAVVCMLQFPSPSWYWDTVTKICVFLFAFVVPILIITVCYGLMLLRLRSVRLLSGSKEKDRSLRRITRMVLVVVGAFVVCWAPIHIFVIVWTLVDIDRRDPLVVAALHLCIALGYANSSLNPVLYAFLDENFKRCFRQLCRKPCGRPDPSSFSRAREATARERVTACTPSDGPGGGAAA
T1 sequence (P32300 whole entry): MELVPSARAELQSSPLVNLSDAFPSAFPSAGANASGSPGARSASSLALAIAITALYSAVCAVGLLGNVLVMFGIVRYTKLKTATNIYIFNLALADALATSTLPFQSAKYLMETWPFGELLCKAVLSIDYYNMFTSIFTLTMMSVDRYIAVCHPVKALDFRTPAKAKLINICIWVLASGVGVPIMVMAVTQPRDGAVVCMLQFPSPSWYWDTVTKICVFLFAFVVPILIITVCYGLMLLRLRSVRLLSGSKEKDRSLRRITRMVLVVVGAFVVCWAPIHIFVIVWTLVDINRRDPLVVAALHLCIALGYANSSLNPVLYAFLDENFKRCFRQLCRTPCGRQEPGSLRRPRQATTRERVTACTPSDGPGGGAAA
T2 sequence (P41145 whole entry): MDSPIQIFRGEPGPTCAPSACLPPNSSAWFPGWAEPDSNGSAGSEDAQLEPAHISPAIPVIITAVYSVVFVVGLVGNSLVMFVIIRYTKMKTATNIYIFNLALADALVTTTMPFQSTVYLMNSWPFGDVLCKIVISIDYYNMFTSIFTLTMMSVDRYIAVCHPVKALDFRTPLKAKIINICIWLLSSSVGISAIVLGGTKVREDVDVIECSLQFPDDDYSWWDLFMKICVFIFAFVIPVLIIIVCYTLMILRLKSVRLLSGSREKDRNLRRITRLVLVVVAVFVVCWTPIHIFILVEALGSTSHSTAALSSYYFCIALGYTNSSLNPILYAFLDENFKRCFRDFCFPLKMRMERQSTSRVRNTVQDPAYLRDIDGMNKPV
T4 sequence (P35372 whole entry): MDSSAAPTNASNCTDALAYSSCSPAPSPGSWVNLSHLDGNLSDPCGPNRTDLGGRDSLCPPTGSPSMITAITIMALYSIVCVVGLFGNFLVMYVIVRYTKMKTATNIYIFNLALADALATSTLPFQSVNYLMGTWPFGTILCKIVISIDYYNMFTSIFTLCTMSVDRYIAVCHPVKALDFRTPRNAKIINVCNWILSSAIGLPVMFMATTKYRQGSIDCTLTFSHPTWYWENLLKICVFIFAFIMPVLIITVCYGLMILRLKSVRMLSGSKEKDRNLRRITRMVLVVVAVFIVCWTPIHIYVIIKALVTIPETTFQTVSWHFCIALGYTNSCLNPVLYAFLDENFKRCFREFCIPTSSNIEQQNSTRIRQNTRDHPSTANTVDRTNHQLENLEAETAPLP
Sequence of µOR (Mus musculus, UniProt P42866) (P42866 whole entry): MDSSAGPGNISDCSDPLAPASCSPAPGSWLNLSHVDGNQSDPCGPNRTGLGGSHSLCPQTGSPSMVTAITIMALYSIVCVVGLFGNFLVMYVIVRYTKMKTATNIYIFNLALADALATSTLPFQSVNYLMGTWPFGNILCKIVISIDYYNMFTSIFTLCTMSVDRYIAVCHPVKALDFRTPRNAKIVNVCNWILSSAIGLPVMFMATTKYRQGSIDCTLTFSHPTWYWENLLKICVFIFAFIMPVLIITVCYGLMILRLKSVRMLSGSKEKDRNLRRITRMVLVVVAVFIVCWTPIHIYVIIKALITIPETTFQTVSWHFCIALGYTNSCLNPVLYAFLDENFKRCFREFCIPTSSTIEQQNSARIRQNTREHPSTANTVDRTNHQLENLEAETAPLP

Consider `COc1cccc(/C=N/NC(=O)c2cc(-c3ccc(Br)s3)n[nH]2)c1O` [Compound 14], for which the IC50 in [1] (setting [15]) was 10 µM.
Same read-out and setting: then `COc1ccc(/C=N/NC(=O)c2cc(-c3ccc(C)s3)n[nH]2)cc1OC` [Compound 11], with 3.98 µM.
On the same count and under the same terms, then `O=C(N/N=C/c1ccc(O)c(O)c1)c1cc(-c2cccs2)n[nH]1` [Compound 6], with 12.6 µM.
Still for that read-out and setting: then `COc1cccc(/C=N/NC(=O)c2cc(-c3ccc(Cl)s3)n[nH]2)c1O` [Compound 13], with 7.94 µM; and `Cc1cccc(/C=N/NC(=O)c2cc(-c3cccs3)n[nH]2)c1` [Compound 3], with 7.94 µM.
Regarding `COc1cccc(/C=N/NC(=O)c2cc(-c3ccco3)n[nH]2)c1O` [Compound 12], the IC50 in data set [1] (setting [15]) was 7.94 µM.
Same read-out and setting: under `CCOc1cccc(/C=N/NC(=O)c2cc(-c3ccco3)n[nH]2)c1O` [Compound 5] stands 10 µM; under `COc1cccc(/C=N/NC(=O)c2cc(-c3cccs3)n[nH]2)c1` [Compound 9], 15.8 µM.
For `CC(c1cccc(O)c1)N(C)CCc1nccn1C` (stereo not drawn) [compound 81], the pKi in [2] is 6.80. In [3], the pEC50 was 6.28.
Regarding `COc1cccc(C=NNC(=O)c2cc(-c3cccs3)n[nH]2)c1O` [Compound 1, N’-(2-hydroxy-3-methoxybenzylidene)-3-(2-thienyl)-1H-pyrazole-5-carbohydrazide], the “affinity and potency at δOR stronger than for µOR and κOR (selectivity)” value in data set [4] (δOR over µOR and κOR) was “roughly 10 fold”. For the same compound, the Ki in [4] (δOR, read-out: Affinity (pKi ± SEM) (converted)) was 1150 nM; in data set [5], > 10 µM; in data set [6] it was > 10 µM. The IC50 was 1 µM in data set [1] (setting [15]); 0.977 µM in data set [1] (δOR, read-out: cAMP Potency (pIC50 ± SEM) (converted)); > 10 µM in data set [7]; > 10 µM in [8]. Moreover, the EC50 in data set [9] and in data set [10] was > 10 µM throughout. In data set [11] (Leu-enkephalin co-incubated with 0.1-10 µM compound 1), the “modulation of Leu-enkephalin activity in cAMP glosensor assay” value is “negative allosteric modulator (NAM)-agonist”. Moreover, the “β (change in Leu-enkephalin Emax)” value in [11] (Leu-enkephalin co-incubated with increasing concentrations of compound 1) is 1.
Regarding `CCOc1cccc(/C=N/NC(=O)c2cc(-c3ccc(Cl)s3)n[nH]2)c1O` [Compound 10], the IC50 in data set [1] (setting [15]) is 7.94 µM.
With `O=C(N/N=C/c1ccccc1)c1cc(-c2cccs2)n[nH]1` [Compound 2], the IC50 in data set [1] (setting [15]) is 12.6 µM.
Regarding `CN1CCC23Cc4nc5ccccc5cc4CC2(O)C1Cc1ccc(O)cc13` (stereo not drawn) [KNT-127], in [12], the “Emax for β-arrestin 2 recruitment” value is given as 70%. The convulsions entry in data set [13] (ref [14],[18],[19]) is “do not induce convulsions”.
In the case of `C[C@H](Cc1cccs1)NC(=O)NC[C@H](Cc1ccc(O)cc1)N(C)C` [PZM21], the pKi in data set [14] is 9.00.
Regarding `O=C(N/N=C/c1ccc(Cl)cc1)c1cc(-c2cccs2)n[nH]1` [Compound 4], the IC50 in data set [1] (setting [15]) is 12.6 µM.
As to `CN(C)C(=O)c1ccc(C(=C2CCN(Cc3cncs3)CC2)c2cccc(C(N)=O)c2)cc1` [PN6047], in data set [13] (ref [17]), the proconvulsant effects result was “not proconvulsant”.
For the compound `CCN(CC)C(=O)c1ccc([C@H](c2cccc(N)c2)N2C[C@@H](C)N(Cc3ccc(F)cc3)C[C@@H]2C)cc1` [AZD2327], the proconvulsant effects result in data set [13] (ref [8]) is “proconvulsant effects”.
Turning to `COc1cc(/C=N/NC(=O)c2cc(-c3ccc(C)s3)n[nH]2)ccc1O` [Compound 15], in data set [1] (setting [15]), the IC50 was 10 µM.
In the case of `CN1CCC2(c3cccc(O)c3)Cc3nc4ccccc4cc3CC2C1` (stereo not drawn) [TAN-67], the “Emax for β-arrestin 2 recruitment” value in data set [12] is given as 30%.
In the case of `COc1cc(/C=N/NC(=O)c2cc(-c3cccs3)n[nH]2)cc(OC)c1OC` [Compound 8], in data set [1] (setting [15]), the IC50 is 10 µM.

Values taken from paper PMC8659279, “Identification of a Novel Delta Opioid Receptor Agonist Chemotype with Potential Negative Allosteric Modulator Capabilities” (Molecules, 2021).
